Earlier results, collected in PMC5862601 (Oncotarget, 2018).
Read-outs that look alike come from different tables or passages of the source.

How the values were obtained:
Jurkat-T cells = details: cited from earlier work; for EC50: Jurkat-T, ref Van der Ploeg et al. Naunyn Schmiedeberg’s Arch Pharmacol. 1996, 353: 250-260. [22]
[1] = system: isolated perfused mouse heart; details: A2B knockout vs wildtype mice, ref [51]; cited from earlier work
[2] = system: HEK293 (native) cells, A2B ≥ A2A; details: cited from earlier work
[3] = system: T24 human bladder carcinoma cells; details: cited from earlier work; for EC50: T24 human bladder carcinoma
[4] = system: PC12 (rat) phaeochromocytoma cells; details: cited from earlier work
A2B receptor (CHO-A2B) = details: ref De Filippo E, et al. Purinergic Signal. 2016;12: 313-329. [11]; cited from earlier work
[5] = system: Ovarian cancer cell line SKOV-3; set-up: method as in Hajiahmadi S, et al. Res Pharm Sci. 2015; 10: 43-51. [24]; details: ref Hajiahmadi S, et al. Res Pharm Sci. 2015, 10: 43-51. [24]; cited from earlier work
[6] = system: Human prostatic carcinoma cells PC-3; set-up: method as in Wei Q, et al. Purinergic Signal. 2013; 9: 271-280. [23]; details: ref Wei Q, et al. Purinergic Signal. 2013, 9: 271-280. [23]; cited from earlier work
[7] = system: Ovarian cancer cell line Caov-4; set-up: method as in Hajiahmadi S, et al. Res Pharm Sci. 2015; 10: 43-51. [24]; details: ref Hajiahmadi S, et al. Res Pharm Sci. 2015, 10: 43-51. [24]; cited from earlier work
[8] = system: HUVEC Human Umbilical Vein Endothelial Cells; set-up: method as in Feoktistov I, et al. Circ Res. 2002; 90: 531-538. [21]; details: HUVEC (A2A > A2B); ref Feoktistov I, et al. Circ Res. 2002; 90: 531-538. [21]; cited from earlier work
[9] = system: Ovarian cancer cell line OVCAR-3; set-up: method as in Hajiahmadi S, et al. Res Pharm Sci. 2015; 10: 43-51. [24]; details: ref Hajiahmadi S, et al. Res Pharm Sci. 2015, 10: 43-51. [24]; cited from earlier work
[10] = system: Breast cancer cell line MDA-MB-231; set-up: method as in Panjehpour M, et al. Br J Pharmacol. 2005; 145: 211-218. [25]; details: ref Panjehpour M, et al. Br J Pharmacol. 2005, 145: 211-218. [25]; cited from earlier work
[11] = system: HMEC-1 human microvascular endothelial cell line; set-up: method as in Feoktistov I, et al. Circ Res. 2002; 90:531-538. [21]; details: ref Feoktistov I, et al. Circ Res. 2002, 90:531-538. [21]; cited from earlier work
HEK-A2B cells, A2B ≥ A2A = details: cited from earlier work
[12] = system: prostate cancer cell lines (A2B > A2A); details: three prostate cancer cell lines (A2B > A2A); ref [13]; cited from earlier work
[13] = system: human ovarian cancer cell lines (A2B > A2A); details: three human ovarian cancer cell lines (A2B > A2A); ref [12]; cited from earlier work
[14] = ref Gao Z, et al. Biochem Pharmacol. 2014, 90: 297-306. [17]
[15] = ref van der Ploeg et al. Naunyn Schmiedeberg’s Arch Pharmacol. 1996, 353: 250-260. [22], read-out: EC50

SMILES	EC50 (Jurkat-T cells) [µM]	increase in coronary flow [1]	EC50 [4, 15] [µM]	EC50 [5] [µM]	EC50 [6] [µM]	EC50 [7] [µM]	EC50 [8] [µM]	EC50 [9] [µM]	EC50 [10] [µM]	EC50 [11] [µM]	further results
CCNC(=O)[C@H]1O[C@@H](n2cnc3c(N)nc(NCCc4ccc(CCC(=O)O)cc4)nc32)[C@H](O)[C@@H]1O [CGS-21680, (2-p-[2-carboxyethyl]phenethylamino)-5´-N-ethylcarboxamidoadenosine]	> 100	increased coronary flow in A2B knockout (KO) mice to a significantly higher degree than in wildtype (WT) mice	0.09	> 100	> 10	> 100	0.469	> 100	> 10	> 100	activity in cAMP assays (Jurkat-T cells; Jurkat-T cells (A2B ≥ A2A), ref [47]): nearly inactive; EC50 ([2]; ref Cooper J, et al. Br J Pharmacol. 1997, 122: 546-550. [18]): > 30 µM; EC50 [2, 14]: > 10 µM; induction of cAMP accumulation ([3]; T24 (A2B > A2A), ref [45]): inactive; EC50 [3, 14]: > 10 µM; EC50 ([3]; ref Phelps PT, et al. Eur J Pharmacol. 2006, 536: 28-37. [20]): > 10 µM; EC50 ([4]; ref Hide I, et al. Mol Pharmacol. 1992, 41: 352-359. [26], read-out: EC50): 0.064 µM; EC50 (A2B receptor (CHO-A2B)): 31.1 µM
CCNC(=O)[C@H]1O[C@@H](n2cnc3c(N)ncnc32)[C@H](O)[C@@H]1O [NECA, 5′-N-ethylcarboxamidoadenosine]	5.8	increased coronary flow in A2B knockout (KO) mice to a significantly higher degree than in wildtype (WT) mice	0.2	18	0.469	9.12	0.95	6.6	1.13	14	EC50 (HEK-A2B cells, A2B ≥ A2A; [14]): 0.021 µM; EC50 (HEK-A2B cells, A2B ≥ A2A; ref Hinz S, et al. J Pharmacol Exp Ther. 2014, 3: 427-436. [15]): 0.2 µM; EC50 (HEK-A2B cells, A2B ≥ A2A; ref Linden J, et al. Mol Pharmacol. 1999, 56: 705-713. [19]): 0.0286 µM; EC50 ([4]; high-affinity component, ref Hide I, et al. Mol Pharmacol. 1992, 41: 352-359. [26], read-out: EC50, biphasic: KH): 0.066 µM; EC50 ([4]; low-affinity component, ref Hide I, et al. Mol Pharmacol. 1992, 41: 352-359. [26], read-out: EC50, biphasic: KL): 7.5 µM; induction of cAMP accumulation [12]: concentration-dependently induced cAMP accumulation; induction of cAMP accumulation [13]: concentration-dependently induced cAMP accumulation
